This passage reports Kd and IC50 results from BindingDB's records for doi:10.1016/j.chembiol.2006.06.007 (University of Wisconsin-Madison, 2006).

Each structure is given as a SMILES string. pIC50, pKd: −log10 of the molar value. A value given as a limit tells only on which side of the number the result lay.

Assay in all cases: High-throughput FP Assay
Assay [1] addresses T1, UDP-galactopyranose mutase (Klebsiella pneumoniae, UniProt Q762K7).
Assay [2] addresses T2, UDP-galactopyranose mutase (Mycobacterium tuberculosis (strain ATCC 25618 / H37Rv), UniProt P9WIQ1).
For assay [3], the target named is T1, UDP-galactopyranose mutase. The protocol:
(§1) To access the ability of compounds to inhibit the catalytic activity of UGM, an HPLC assay was employed. Inhibition constants were determined by monitoring UGM activity at a single substrate concentration while varying inhibitor concentration.
The source holds these as a separate data set.

In assay [4] the target is T2, UDP-galactopyranose mutase. The protocol:
as §1
The source holds these as a separate data set.

T2 sequence (P9WIQ1 whole entry): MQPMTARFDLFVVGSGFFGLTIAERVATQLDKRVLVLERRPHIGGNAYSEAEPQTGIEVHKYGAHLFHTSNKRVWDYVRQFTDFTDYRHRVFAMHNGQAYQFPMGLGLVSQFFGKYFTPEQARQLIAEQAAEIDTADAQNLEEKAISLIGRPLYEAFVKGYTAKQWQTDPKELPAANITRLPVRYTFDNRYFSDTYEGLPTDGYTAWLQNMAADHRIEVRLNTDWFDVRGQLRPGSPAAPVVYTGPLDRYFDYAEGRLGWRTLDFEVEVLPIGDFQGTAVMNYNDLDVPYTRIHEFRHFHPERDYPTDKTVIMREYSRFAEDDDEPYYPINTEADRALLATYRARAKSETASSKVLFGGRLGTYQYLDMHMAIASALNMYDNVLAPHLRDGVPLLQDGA
T1 sequence (Q762K7 whole entry): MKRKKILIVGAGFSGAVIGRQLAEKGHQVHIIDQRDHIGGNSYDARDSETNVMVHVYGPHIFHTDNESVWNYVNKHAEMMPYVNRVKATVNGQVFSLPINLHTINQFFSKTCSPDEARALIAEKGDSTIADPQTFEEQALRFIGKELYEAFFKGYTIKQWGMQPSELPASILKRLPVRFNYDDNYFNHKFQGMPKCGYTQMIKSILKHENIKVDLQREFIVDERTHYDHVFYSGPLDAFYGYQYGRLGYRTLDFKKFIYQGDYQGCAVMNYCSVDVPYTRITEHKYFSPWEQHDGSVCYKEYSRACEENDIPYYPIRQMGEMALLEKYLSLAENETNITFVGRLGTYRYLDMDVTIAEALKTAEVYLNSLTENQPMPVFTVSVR

Consider `O=C(O)C(Cc1ccccc1)N1C(=O)/C(=C\c2cccc(F)c2)SC1=S` (stereo unspecified) [Thiazolidinone core, 23], for which the pKd in assay [1] and in assay [2] was under 4.48 throughout.
`O=C(O)C(Cc1ccccc1)N1C(=O)/C(=C\c2cccc(Br)c2)SC1=S` (stereo unspecified) [Thiazolidinone core, 6]: the pIC50 is 5.80 in assay [3] and 4.19 in assay [4]. In addition, the pKd in assay [1] was 5.03; in assay [2], 4.92.
In turn, `CCOC(=O)c1cc(-c2ccc(/C=C3\C(=O)N(c4ccc(S(N)(=O)=O)cc4)N=C3C(F)(F)F)o2)ccc1Cl` [Pyrazol analog, 4] had a pKd in assay [1] of 5.17.
As for `CC(C(=O)O)N1C(=O)/C(=C\c2cccc(Br)c2)SC1=S` (stereo unspecified) [Thiazolidinone core, 16], the values for the negative-log Kd (pKd) in assay [1] and in assay [2] were under 4.48 and under 3.48, respectively.
On the same counts, the results for `Cc1cccc(/C=C2/SC(=S)N(C(Cc3ccccc3)C(=O)O)C2=O)c1` (stereo unspecified) [Thiazolidinone core, 27] are under 4.48 and under 4.48.
Taken in the same sequence, the figures for `CC(C(=O)O)N1C(=O)/C(=C2/C(=O)Nc3ccccc32)SC1=S` (stereo unspecified) [Thiazolidinone core, 19] were under 4.48 and under 3.48.
Regarding `CCOC(=O)c1ccc(-c2ccc(/C=C3\C(=O)N(c4ccc(S(N)(=O)=O)cc4)N=C3C(F)(F)F)o2)cc1` [Pyrazol analog, 3], in assay [1], the pKd is 5.51.
As for `O=C1N/C(=N\S(=O)(=O)c2ccccc2)S/C1=C1/C(=O)Nc2ccc([N+](=O)[O-])cc21` [Thiazolidinone core, 5], in assay [3], the pIC50 was 4.77. Also, the pKd in assay [1] was 5.40.
`O=C(O)c1cc(NC(=S)NCCCCCCOP(=O)(O)OP(=O)(O)OCC2OC(n3ccc(=O)[nH]c3=O)C(O)C2O)ccc1-c1c2ccc(=O)cc-2oc2cc(O)ccc12` (stereo unspecified) [Fluorescent Probe 1] had a pIC50 in assay [4] of 5.24. The pKd is 7.00 in assay [1] and 6.80 in assay [2].
In assay [4], `O=C(O)C(Cc1ccccc1)N1C(=O)/C(=C/c2cccc(Cl)c2)SC1=S` (stereo unspecified) [Thiazolidinone core, 21] had a pIC50 of 4.31. The pKd in assay [1] was 4.67; in assay [2], 4.80.
In assay [4], `O=C(O)[C@H](Cc1ccccc1)N1C(=O)/C(=C/c2ccc(Br)cc2)SC1=S` [Thiazolidinone core, 24] had a pIC50 of 4.46. The pKd in assay [1] was under 4.48; in assay [2], 5.03.
For the compound `O=C1Nc2ccccc2/C1=C1/SC(=S)N(C(Cc2ccccc2)C(=O)O)C1=O` (stereo unspecified) [Thiazolidinone core, 8], in assay [3], the negative logarithm of the IC50 (pIC50) is 4.03. The same compound showed a pKd in assay [1] of 4.97.
With `O=C(O)C(Cc1ccccc1)N1C(=O)/C(=C\c2cccc([N+](=O)[O-])c2)SC1=S` (stereo unspecified) [Thiazolidinone core, 26], the pKd in assay [1] and in assay [2] was under 4.48 throughout.
For `O=C1Nc2ccccc2/C1=C1/SC(=S)N(C(Cc2ccc(O)cc2)C(=O)O)C1=O` (stereo unspecified) [Thiazolidinone core, 20], the pKd is 4.85 in assay [1] and under 4.48 in assay [2].
As to `NS(=O)(=O)c1ccc(N2N=C(C(F)(F)F)/C(=C/c3ccc(-c4ccc5c(c4)C(=O)NC5=O)o3)C2=O)cc1` [Pyrazol analog, 2], the pKd in assay [1] was 5.82.
Take `O=c1/c(=C/c2cc([N+](=O)[O-])c(O)cc2Cl)sc2nc3ccccc3n12` [Thiazolidinone core, 10]: the values for the pIC50 in assay [3] and in assay [4] were 5.40 and 7.55, respectively. Further, the pKd in assay [2] was 5.28.
As to `O=C(O)C(Cc1ccccc1)N1C(=O)/C(=C/c2cccc(Br)c2)SC1=S` (stereo unspecified) [Thiazolidinone core, 15], the pKd in assay [1] and in assay [2] was under 4.48 in each case.
`O=C(O)C(Cc1ccccc1)N1C(=O)/C(=C/c2cccc(I)c2)SC1=S` (stereo unspecified) [Thiazolidinone core, 22] gave a pIC50 in assay [4] of 4.39. Also, the values for the pKd in assay [1] and in assay [2] were 5.20 and 5.22, respectively.
For the compound `O=C(O)C(Cc1ccccc1)N1C(=O)/C(=C\c2ccccc2)SC1=S` (stereo unspecified) [Thiazolidinone core, 29], the pKd in assay [1] and in assay [2] was under 4.48 each time.
With `O=C(O)CN1C(=O)/C(=C2/C(=O)Nc3ccccc32)SC1=S` [Thiazolidinone core, 18], the pKd in assay [1] is under 4.48; in assay [2] it was under 3.48.
Compound `O=C1Nc2ccc([N+](=O)[O-])cc2/C1=C1/SC(=S)N(C(Cc2ccccc2)C(=O)O)C1=O` (stereo unspecified) [Thiazolidinone core, 30] showed a pIC50 in assay [4] of under 4.00. Moreover, the values for the negative-log Kd (pKd) in assay [1] and in assay [2] were 5.24 and 5.00, respectively.
Turning to `O=C(O)N1C(=O)/C(=C\c2ccccc2)SC1=S` [Thiazolidinone core, 31], the negative-log Kd (pKd) in assay [1] was under 4.48; in assay [2], under 3.48.
Taken in the same sequence, the figures for `O=C(O)C(Cc1ccccc1)N1C(=O)/C(=C\c2ccccc2Br)SC1=S` (stereo unspecified) [Thiazolidinone core, 25] were under 4.48 and under 4.48.
Taken in the same sequence, the figures for `COc1cccc(/C=C2/SC(=S)N(C(Cc3ccccc3)C(=O)O)C2=O)c1` (stereo unspecified) [Thiazolidinone core, 28] were under 4.48 and under 4.48.
For the compound `O=C1c2cccc3c([N+](=O)[O-])ccc(c23)C(=O)N1Cc1cccnc1` [Pyridin analog, 11], the pKd in assay [2] was 5.10.
`O=C(O)C(Cc1ccc(O)cc1)N1C(=O)/C(=C\c2cccc(Br)c2)SC1=S` (stereo unspecified) [Thiazolidinone core, 17]: the pKd in assay [1] was under 4.95; in assay [2], under 4.48.

The term pKd denotes the Kd on a negative log10 scale, so that one unit is a factor of ten. A high value points to a low Kd. By pIC50 is commonly meant the negative decadic logarithm of the IC50, by convention in mol/L. A high value points to a low IC50.
